Measurements from the NIST ThermoML archive (doi:10.1021/je800787t).
± gives the expanded uncertainty stated by the source.

Tests used:
[1] = refractive index (other wavelength) (dimensionless); conditions: 101.33 kPa, Liquid, Wavelength=632.8 nm, Standard Abbe refractometry
[2] = refractive index (other wavelength) (dimensionless); xn = mol fraction of the nth substance listed; conditions: 101.3 kPa, Liquid, Wavelength=632.8 nm, Standard Abbe refractometry

CCCCCCCCCC [decane]
[1]
Conditions	refractive index
278.87 K	1.4169 ± 0.0006
280.1 K	1.4163 ± 0.0006
281.3 K	1.4158 ± 0.0006
282.48 K	1.4153 ± 0.0006
283.62 K	1.4148 ± 0.0006
284.82 K	1.4142 ± 0.0006
286.06 K	1.4137 ± 0.0006
287.23 K	1.4132 ± 0.0006

CCCCCCCCCCCCCC [tetradecane]
[1]
Conditions	refractive index
299.64 K	1.4248 ± 0.0006
300.67 K	1.4244 ± 0.0006
301.68 K	1.424 ± 0.0006
302.71 K	1.4235 ± 0.0006
303.75 K	1.4231 ± 0.0006
304.75 K	1.4226 ± 0.0006
305.78 K	1.4222 ± 0.0006
306.86 K	1.4218 ± 0.0006
307.91 K	1.4213 ± 0.0006

CCCCCCCCCCCCCC [tetradecane] + COC(=O)OC
[2], 308.14 K
Conditions	refractive index
x2 = 0	1.4235 ± 0.0008
x2 = 0.1	1.4179 ± 0.0008
x2 = 0.201	1.4145 ± 0.0008
x2 = 0.3	1.4107 ± 0.0008
x2 = 0.399	1.4067 ± 0.0008
x2 = 0.5	1.4019 ± 0.0008
x2 = 0.6	1.3966 ± 0.0008
x2 = 0.708	1.3898 ± 0.0008
x2 = 0.801	1.3826 ± 0.0008
x2 = 0.899	1.3729 ± 0.0008

COC(=O)OC [dimethyl carbonate]
[1]
Conditions	refractive index
277.34 K	1.3749 ± 0.0006
278.7 K	1.3743 ± 0.0006
280.06 K	1.3737 ± 0.0006
281.54 K	1.373 ± 0.0006
282.92 K	1.3724 ± 0.0006
284.24 K	1.3718 ± 0.0006
285.53 K	1.3712 ± 0.0006
286.93 K	1.3706 ± 0.0006
299.64 K	1.3647 ± 0.0006
300.69 K	1.3642 ± 0.0006
301.77 K	1.3637 ± 0.0006
302.82 K	1.3632 ± 0.0006
303.91 K	1.3627 ± 0.0006
304.99 K	1.3622 ± 0.0006
306.04 K	1.3617 ± 0.0006
307.11 K	1.3612 ± 0.0006
308.14 K	1.3607 ± 0.0006

COC(=O)OC [dimethyl carbonate] + CCCCCCCCCCCCCC
Conditions	refractive index
[2], 308.14 K, x1 = 1	1.3632 ± 0.0008

CCCCCCCCCC [decane] + COC(=O)OC
[2], 287.95 K
Conditions	refractive index
x2 = 0.101	1.4095 ± 0.0008
x2 = 0.204	1.4062 ± 0.0008
x2 = 0.3	1.403 ± 0.0008
x2 = 0.401	1.3995 ± 0.0008
x2 = 0.501	1.3958 ± 0.0008
x2 = 0.605	1.3917 ± 0.0008
x2 = 0.686	1.388 ± 0.0008
x2 = 0.8	1.3821 ± 0.0008
x2 = 0.903	1.3762 ± 0.0008
